Experimental data taken from publication PMC10860144, “Exploring the Dispersion and Electrostatic Components in Arene–Arene Interactions between Ligands and G4 DNA to Develop G4-Ligands” (Journal of Medicinal Chemistry, 2024).

What was measured:
[1] = Intrinsic clearance in rat hepatocytes; type: in vitro ADME
Description: All compounds (2–11, 25–29) were screened for their logD and solubility at pH 7.4 and for their intrinsic clearance in rat hepatocytes and human microsomes (Table S2). […] Replacing the basic amine side chain to a methyl substituent in the quinazolines (25–29) still retained good solubility (134 to over 1000 μM) but increased clearance in both rat hepatocytes and human microsomes. The logD was low for compounds with a basic amine side chain (2–11) and increased slightly when the amine was replaced with a methyl (25–29). As expected, additional substituents also affected the logD with the chloro-substituents increasing logD the most.
a Intrinsic clearance in rat hepatocytes ((μL/min)/10^6 cells).b Intrinsic clearance in human microsomes (μL/min/mg). […]

[2] = biological target: Pu24T c-MYC G4 structure; test: Kd for binding to the Pu24T c-MYC G4 structure (supplementary CSV); design: species or system human
Description: (§1) 5′-Cy5 labeled G4 DNAs for this study were purchased from Eurofins Genomics. Stock solutions were prepared in water at 100 μM concentration. The sequences used are listed in Supporting Information Table S1. The G4 DNA sequences were folded in KCl buffer (10 mM phosphate, 100 mM KCl, pH 7.4) by heating at 95 °C for 5 min and then cooling to room temperature. All the experiments were performed in 10 mM phosphate pH 7.4, 100 mM KCl, and 0.05% Tween20. The labeled DNA concentration is held constant at 25 nM, and ligand concentration is varied depending on ligands Kd (16 1:3 dilutions). The samples were loaded into standard MST graded glass capillaries and initial fluorescence intensity of the capillary was measured using Monolith NT.115 (Nano Temper, Germany) with 20% LED power. The change in fluorescence with ligand’s concentrations were plotted in Excel and fitted through nonlinear equation to obtain the binding constants.
The Supporting Information is available free of charge at https://pubs.acs.org/doi/10.1021/acs.jmedchem.3c02127. • Experimental procedures and data; assay data, computational results, and all cell data; NMR (^1H and ^13C) spectra for all compounds (with the exception of a few intermediates); and HPLC UV traces for the final compounds (PDF) • Molecular formula strings and Kd values for binding to the Pu24T c-MYC G4 structure (CSV)

[3] = logD at pH 7.4; type: physicochemical
Description: Physicochemical properties
The Physicochemical profiling (LogD, Solubility, Caco-2 cell permeability) was performed as previously
described.8 Cell viability was performed as described below.
Table S2. Pharmacokinetic Properties
Compound Structure logD, Solubility, Rat hepsa Human mics b

[4] = biological target: c-MYC Pu22 G4 DNA; test: Microscale thermophoresis (MST), c-MYC Pu22 G4 DNA; type: binding, human; conditions: Cy5-labeled c-MYC Pu22 G4 DNA 25 nM; pH 7.4, 100 mM KCl; read-out: apparent Kd (MST)
Description: To evaluate the apparent binding affinities (Kd) for the compound series, we next used microscale thermophoresis (MST) with fluorescently labeled c-MYC Pu22 G4 DNA (Table S1). Overall, the measured MST binding results for compounds 2–11 corresponded well with the results from the FRET assay (Figures 2B and S3).
as §1, with “constants. […]” for “constants.”
Microscale Thermophoresis (MST)
5'- Cy5 labelled G4 DNAs for this study were purchased from Eurofins Genomics. Stock solutions were prepared in water at […] concentration. The sequences used are listed in supplementary Table S1. The G4 DNA sequences were folded in KCl buffer (10 mM phosphate, 100 mM KCl, pH 7.4) by heating at 95 °C for 5 min and then cooling to room temperature. All the experiments were performed in 10 mM phosphate pH 7.4, 100 mM KCl, 0.05% Tween20. The labelled DNA concentration is held constant at 25 nM and ligand concentration is varied depending on ligands Kd (sixteen 1:3 dilutions). The samples were loaded into standard MST graded glass capillaries and initial fluorescence intensity of the capillary were measured using Monolith NT.115 (Nano Temper, Germany) with 20% LED power. The change in fluorescence with ligand's concentrations were plotted in Excel and fitted through non-linear equation to obtain the binding constants.
(1 picture or pasted object on this page, not shown here)

Rat heps: intrinsic clearance in rat hepatocytes [1] | Kd [2] | logD [3] | Kd [4] | SMILES
8 (μL/min)/106 cells | 1.4 ± 0.3 µM | -0.1 | 1.4 µM | Cc1cc(NCCCN(C)C)nc(Nc2ncc3ccccc3n2)n1 [Compound 2, N4-(3-(Dimethylamino)propyl)-6-methyl-N2-(quinazolin-2-yl)pyrimidine-2,4-diamine]
1 (μL/min)/106 cells | 0.05 ± 0.004 µM | 0.6 | 0.05 µM | Cc1cc(C)c2nc(Nc3nc(C)cc(NCCCN(C)C)n3)nc(C)c2c1 [Compound 5, N4-(3-(Dimethylamino)propyl)-6-methyl-N2-(4,6,8-trimethylquinazolin-2-yl)pyrimidine-2,4-diamine]
27 (μL/min)/106 cells | 0.8 ± 0.1 µM | 2.9 | 0.8 µM | Cc1cc(C)c2nc(Nc3nc(C)cc(C)n3)nc(C)c2c1 [Compound 27, N-(4,6-Dimethylpyrimidin-2-yl)-4,6,8-trimethylquinazolin-2-amine]
